Results from publication PMC4096598 (PLoS ONE, 2014).
“And” between values parts separate entries of the source, which are not always exact repeats. Equal entries are not always repeated. Where two headings read alike, the source gives them in different places. Marks after values point to notes of the source that are not given here. Ends that are not written are not given here.

Assays:
[1] = test system: Mycobacterium tuberculosis H37Rv (ATCC 27294); details: literature value ref Rastogi, et al., 1996 [55]; cited from earlier work
[2] = test system: Staphylococcus aureus (ATCC 25923); details: ATCC 25923, 10 h
[3] = test system: Mycobacterium tuberculosis H37Rv (ATCC 27294); details: 24 h
human red blood cells = test: Hemolytic assay; format: cell-based; details: 1 h at room temperature; for hemolysis of human erythrocytes: relative to 10% Triton X-100, average of at least four independent experiments; for IC50: human red blood cells, absorbance 570 nm, vs 10% Triton X-100, mean and 95% confidence intervals, NO = no observed hemolytic activity at 100 µM, read-out: Hemolysis (IC50)
Description: Hemolytic activity was determined by incubating suspensions of human red blood cells with serial dilutions of each selected peptides. Red blood cells were rinsed several times in PBS by centrifugation for 3 min at 3,000 g until the OD of the supernatant reached the OD of the control (PBS only). Red blood cells were counted by a hemocytometer and adjusted to 7.7×10^6±0.3×10^6 cells/mL. Red blood cells were then incubated at room temperature for 1 h in 10% Triton X-100 (positive control), in PBS (blank), or with amphipathic peptides at concentrations of 0.4, 0.8, 1.6, 3.1, 6.2, 12.5 and 25 µM, only for Pin2 [14] and Pin2 [17] the 50 and 100 µM concentrations were evaluated. The samples were then centrifuged at 10,000 g for 5 min, the supernatant was separated from the pellet, and its absorbance measured at 570 nm. The relative optical density compared to that of the suspension treated with 10% Triton X-100 was defined as the percentage of hemolysis.
The experimental values represent means ± standard deviations. The hemolytic constants (IC50) were obtained using a non-linear regression where the data was fit to a Boltzmann sigmoid equation. To determine statistically significant differences, an analysis of variance (ANOVA) followed by post hoc testing using the Tukey's method was performed using the software package Prism 4 (GraphPad, Inc., USA). Statistical significances were accepted at p<0.05.

[4] = test system: Staphylococcus aureus (ATCC 25923)
[5] = test system: Escherichia coli (ATCC 25922)
[6] = test system: Escherichia coli (ATCC 25922); details: ATCC 25922, 10 h

Molecule	MIC Mycobacterium tuberculosis H37Rv [1]	MIC S. aureus [2]	MIC Mycobacterium tuberculosis H37Rv [3] [µM]	hemolysis of human erythrocytes (human red blood cells; peptide at 25 µM) [%]	MIC S. aureus [4] [µM]	MIC E. coli [5] [µM]	MIC E. coli [6]	IC50 (human red blood cells) [nM]	hemolysis of human erythrocytes (human red blood cells; peptide at 100 µM) [%]
CC[C@@H](CO)NCCN[C@@H](CC)CO [Ethambutol]	0.5 µg/mL and 2.5 µM								
CO[C@H]1/C=C/O[C@@]2(C)Oc3c(C)c(O)c4c(O)c(c(/C=N/N5CCN(C)CC5)c(O)c4c3C2=O)NC(=O)/C(C)=C\C=C\[C@H](C)[C@H](O)[C@@H](C)[C@@H](O)[C@@H](C)[C@H](OC(C)=O)[C@@H]1C [Rifampicin]	0.4 µg/mL and 0.5 µM								
FWGALAKGALKLIGPGSLFSSFSKKD [Pin2 [GPG]]		12.5 µM	29 ± 9	30	25	25	12.5 µM		
FWGALAKGALKLIGSLFSSFSKKD [Pin2 [G]]		12.5 µM	18.7	100	12.5	12.5	12.5 µM	1400	
FWGALAKGALKLIPSLFSSFSKKD [Pin2, Pandinin 2, reference compound]		12.5 µM	22.1 ± 8.6	91	37.5	18.8	12.5 µM	3300	
FWGLKGLKGPGKFSKKL [Pin2 [17]]		>25 µM			80	25	>25 ^† µM		
FWGLKGLKKFSKKL [Pin2 [14]]		>25 ^† µM	11.92 ± 3.7		>300	25	25 µM		25
